Compound: Cc1ccc2cc(Br)ccc2n1
- solubility (mole fraction) (in DMF, 278.15 K): 0.00585
- solubility (mole fraction) (in DMF, 283.15 K): 0.00675
- solubility (mole fraction) (in DMF, 288.15 K): 0.00765
- solubility (mole fraction) (in DMF, 293.15 K): 0.00869
- solubility (mole fraction) (in DMF, 298.15 K): 0.00994
- solubility (mole fraction) (in DMF, 303.15 K): 0.0116
- solubility (mole fraction) (in DMF, 308.15 K): 0.0137
- solubility (mole fraction) (in DMF, 313.15 K): 0.0161
- solubility (mole fraction) (in DMF, 318.15 K): 0.0188
- solubility (mole fraction) (in DMF, 323.15 K): 0.0222
- solubility (mole fraction) (in acetone, 278.15 K): 0.00678
- solubility (mole fraction) (in acetone, 283.15 K): 0.00793
- solubility (mole fraction) (in acetone, 288.15 K): 0.00926
- solubility (mole fraction) (in acetone, 293.15 K): 0.0108
- solubility (mole fraction) (in acetone, 298.15 K): 0.0126
- solubility (mole fraction) (in acetone, 303.15 K): 0.0149
- solubility (mole fraction) (in acetone, 308.15 K): 0.0175
- solubility (mole fraction) (in acetone, 313.15 K): 0.0204
- solubility (mole fraction) (in acetone, 318.15 K): 0.0237
- solubility (mole fraction) (in acetone, 323.15 K): 0.0276
- solubility (mole fraction) (in acetonitrile, 278.15 K): 0.00648
- solubility (mole fraction) (in acetonitrile, 283.15 K): 0.00743
- solubility (mole fraction) (in acetonitrile, 288.15 K): 0.00855
- solubility (mole fraction) (in acetonitrile, 293.15 K): 0.00974
- solubility (mole fraction) (in acetonitrile, 298.15 K): 0.0112
- solubility (mole fraction) (in acetonitrile, 303.15 K): 0.0131
- solubility (mole fraction) (in acetonitrile, 308.15 K): 0.0154
- solubility (mole fraction) (in acetonitrile, 313.15 K): 0.0182
- solubility (mole fraction) (in acetonitrile, 318.15 K): 0.0213
- solubility (mole fraction) (in acetonitrile, 323.15 K): 0.0253
- solubility (mole fraction) (in ethanol, 278.15 K): 0.000938
- solubility (mole fraction) (in ethanol, 283.15 K): 0.00112
- solubility (mole fraction) (in ethanol, 288.15 K): 0.00131
- solubility (mole fraction) (in ethanol, 293.15 K): 0.00151
- solubility (mole fraction) (in ethanol, 298.15 K): 0.00179
- solubility (mole fraction) (in ethanol, 303.15 K): 0.00213
- solubility (mole fraction) (in ethanol, 308.15 K): 0.00249
- solubility (mole fraction) (in ethanol, 313.15 K): 0.00289
- solubility (mole fraction) (in ethanol, 318.15 K): 0.00334
- solubility (mole fraction) (in ethanol, 323.15 K): 0.0039
- solubility (mole fraction) (in ethyl acetate, 278.15 K): 0.0072
- solubility (mole fraction) (in ethyl acetate, 283.15 K): 0.00844
- solubility (mole fraction) (in ethyl acetate, 288.15 K): 0.0101
- solubility (mole fraction) (in ethyl acetate, 293.15 K): 0.0117
- solubility (mole fraction) (in ethyl acetate, 298.15 K): 0.0136
- solubility (mole fraction) (in ethyl acetate, 303.15 K): 0.0159
- solubility (mole fraction) (in ethyl acetate, 308.15 K): 0.0187
- solubility (mole fraction) (in ethyl acetate, 313.15 K): 0.0218
- solubility (mole fraction) (in ethyl acetate, 318.15 K): 0.0255
- solubility (mole fraction) (in ethyl acetate, 323.15 K): 0.0299
- solubility (mole fraction) (in isopropanol, 278.15 K): 0.00191
- solubility (mole fraction) (in isopropanol, 283.15 K): 0.00229
- solubility (mole fraction) (in isopropanol, 288.15 K): 0.00274
- solubility (mole fraction) (in isopropanol, 293.15 K): 0.0032
- solubility (mole fraction) (in isopropanol, 298.15 K): 0.00375
- solubility (mole fraction) (in isopropanol, 303.15 K): 0.00442
- solubility (mole fraction) (in isopropanol, 308.15 K): 0.00518
- solubility (mole fraction) (in isopropanol, 313.15 K): 0.00608
- solubility (mole fraction) (in isopropanol, 318.15 K): 0.00703
- solubility (mole fraction) (in isopropanol, 323.15 K): 0.00812
- solubility (mole fraction) (in methanol, 278.15 K): 0.000232
- solubility (mole fraction) (in methanol, 283.15 K): 0.000276
- solubility (mole fraction) (in methanol, 288.15 K): 0.000319
- solubility (mole fraction) (in methanol, 293.15 K): 0.000372
- solubility (mole fraction) (in methanol, 298.15 K): 0.000444
- solubility (mole fraction) (in methanol, 303.15 K): 0.000525
- solubility (mole fraction) (in methanol, 308.15 K): 0.000613
- solubility (mole fraction) (in methanol, 313.15 K): 0.000719
- solubility (mole fraction) (in methanol, 318.15 K): 0.000849
- solubility (mole fraction) (in methanol, 323.15 K): 0.000998
- solubility (mole fraction) (in n-propanol, 278.15 K): 0.00218
- solubility (mole fraction) (in n-propanol, 283.15 K): 0.00261
- solubility (mole fraction) (in n-propanol, 288.15 K): 0.00317
- solubility (mole fraction) (in n-propanol, 293.15 K): 0.00371
- solubility (mole fraction) (in n-propanol, 298.15 K): 0.00438
- solubility (mole fraction) (in n-propanol, 303.15 K): 0.00513
- solubility (mole fraction) (in n-propanol, 308.15 K): 0.00593
- solubility (mole fraction) (in n-propanol, 313.15 K): 0.00687
- solubility (mole fraction) (in n-propanol, 318.15 K): 0.0079
- solubility (mole fraction) (in n-propanol, 323.15 K): 0.00914
- solubility (mole fraction) (in toluene, 278.15 K): 0.00817
- solubility (mole fraction) (in toluene, 283.15 K): 0.00953
- solubility (mole fraction) (in toluene, 288.15 K): 0.0111
- solubility (mole fraction) (in toluene, 293.15 K): 0.0132
- solubility (mole fraction) (in toluene, 298.15 K): 0.0155
- solubility (mole fraction) (in toluene, 303.15 K): 0.018
- solubility (mole fraction) (in toluene, 308.15 K): 0.0212
- solubility (mole fraction) (in toluene, 313.15 K): 0.0248
- solubility (mole fraction) (in toluene, 318.15 K): 0.0286
- solubility (mole fraction) (in toluene, 323.15 K): 0.0332
- solubility (mole fraction) (in water, 278.15 K): 6.88e-06
- solubility (mole fraction) (in water, 283.15 K): 8.1e-06
- solubility (mole fraction) (in water, 288.15 K): 9.62e-06
- solubility (mole fraction) (in water, 293.15 K): 1.13e-05
- solubility (mole fraction) (in water, 298.15 K): 1.33e-05
- solubility (mole fraction) (in water, 303.15 K): 1.54e-05
- solubility (mole fraction) (in water, 308.15 K): 1.82e-05
- solubility (mole fraction) (in water, 313.15 K): 2.13e-05
- solubility (mole fraction) (in water, 318.15 K): 2.48e-05
- solubility (mole fraction) (in water, 323.15 K): 2.89e-05
